Laboratory results published in publication PMC4844649, “A first-in-Asian phase 1 study to evaluate safety, pharmacokinetics and clinical activity of VS-6063, a focal adhesion kinase (FAK) inhibitor in Japanese patients with advanced solid tumors” (Cancer Chemotherapy and Pharmacology, 2016).
Several values for one entry are separate records, joined by “and”; a condition that tells them apart may be missing. Identical values can stand only once. Entries after “also recorded” stand apart in the source; their conditions may differ.

Experiments:
[1] = phase 1 safety and tolerability (CTCAE v4.03) in Japanese patients with advanced solid tumors; assay type: in vivo; conditions: for Grade 3 AE of unconjugated hyperbilirubinemia: 200 mg BID cohort; for dose-limiting toxicities (DLTs): 200–600 mg BID
Protocol: This was a phase 1, open-label, dose-escalation study to evaluate the safety and PK of VS-6063, a FAK inhibitor in Japanese subjects with advanced solid tumor malignancies. This study was expected to enroll up to 18 evaluable subjects with non-hematologic malignancies if 6 subjects were assigned at each of the 3 planned dose levels of 200, 400, and 600 mg BID. VS-6063 was administered orally, BID, in continuous 21 day cycles. Subject enrollment proceeded according to a standard 3 + 3 design. In the absence of DLT, each subject received oral VS-6063 (BID) for a minimum of 21 days of continuous daily dosing (1 cycle) and could continue to receive additional cycles of study treatment until disease progression was documented or other treatment discontinuation criteria were met. All patients within a cohort were required to complete 1 cycle (21 days) of dosing with <1 of 3 or <2 of 6 subjects experiencing a DLT prior to escalation to the next dose level in a new cohort. Three subjects were to be treated at each dose level until the first instance of DLT, after which up to 6 subjects were to be treated at that dose level. […] The MTD was defined as the highest dose level studied at which <1 subject out of 3 or <2 subjects out of 6 experienced a DLT. The RP2D was to be determined in discussion among the sponsor, medical monitor, and investigators. Observations related to PK and any VS-6063-related toxicities were included in the rationale supporting the RP2D. Safety and tolerability was assessed by the incidence and severity of AEs as determined by National Cancer Institute (NCI) Common Terminology Criteria for Adverse Events (CTCAE v4.03). The antitumor activity of study treatment was assessed according to the Response Evaluation Criteria in Solid Tumors (RECIST v1.1).

recombinant human Pyk2 = conditions: in vitro; background statement, no reference given; read-out: IC50, inhibition of recombinant human Pyk2 activity; cited from earlier work
recombinant human FAK = conditions: in vitro; background statement, no reference given; read-out: IC50, inhibition of recombinant human FAK activity; cited from earlier work
CYP 2C, 2D, 3A = conditions: preclinical evidence; no reference given; cited from earlier work
other nontarget kinases = conditions: background statement, no reference given; cited from earlier work
UGT1A1 = conditions: in vitro; no reference given; cited from earlier work
[2] = 200 mg BID, N = 3, listed as defactinib
[3] = 400 mg BID, N = 3, listed as defactinib
[4] = 600 mg BID, N = 3, listed as defactinib
[5] = Total, N = 9, listed as defactinib

For `CNC(=O)c1ccc(Nc2ncc(C(F)(F)F)c(NCc3nccnc3N(C)S(C)(=O)=O)n2)cc1` [VS-6063, defactinib], the “Grade 3 AE of unconjugated hyperbilirubinemia” value [1] was “Only one subject”, the “Grade 3 AE of unconjugated hyperbilirubinemia” value ([1]; listed as defactinib) was “Only one patient” and the “Anemia, treatment-related adverse event” value ([1]; 200 mg BID, N = 3) was 0 n (%). For the same molecule, the “Aspartate aminotransferase increased, treatment-related adverse event” value (shortened to “Aspartate aminotransferase increased”) ([1]; 200 mg BID, N = 3) was 1 (33.3) n (%), the “Blood alkaline phosphatase increased, treatment-related adverse event” value (from here on “Blood alkaline phosphatase increased”) ([1]; 200 mg BID, N = 3) was 2 (66.7) n (%) and the “Blood bilirubin increased, treatment-related adverse event” value (“Blood bilirubin increased” for short) ([1]; 200 mg BID, N = 3) was 3 (100.0) n (%). The “Decreased appetite, treatment-related adverse event” value (from here on “Decreased appetite”) ([1]; 200 mg BID, N = 3) was 2 (66.7) n (%), the “Diarrhea, treatment-related adverse event” value ([1]; 200 mg BID, N = 3) was 0 n (%) and the “Fatigue, treatment-related adverse event” value ([1]; 200 mg BID, N = 3) was 2 n (%) and 2 (66.7) n (%). For the same molecule, the “Headache, treatment-related adverse event” value ([1]; 200 mg BID, N = 3) was 0 n (%), the “Nausea, treatment-related adverse event” value ([1]; 200 mg BID, N = 3) was 1 (33.3) n (%) and the “Blood bilirubin increased” value [1, 2] was 3 n (%). The “Nausea, treatment-related adverse event” value [1, 2] was 1 n (%), the “Anemia, treatment-related adverse event” value ([1]; 400 mg BID, N = 3) was 0 n (%) and the “Aspartate aminotransferase increased” value ([1]; 400 mg BID, N = 3) was 0 n (%). The “Blood alkaline phosphatase increased” value ([1]; 400 mg BID, N = 3) was 0 n (%), the “Blood bilirubin increased” value ([1]; 400 mg BID, N = 3) was 2 (66.7) n (%) and the “Decreased appetite” value ([1]; 400 mg BID, N = 3) was 1 (33.3) n (%). The “Diarrhea, treatment-related adverse event” value ([1]; 400 mg BID, N = 3) was 1 (33.3) n (%), the “Fatigue, treatment-related adverse event” value ([1]; 400 mg BID, N = 3) was 1 n (%) and 1 (33.3) n (%) and the “Headache, treatment-related adverse event” value ([1]; 400 mg BID, N = 3) was 1 (33.3) n (%). The “Nausea, treatment-related adverse event” value ([1]; 400 mg BID, N = 3) was 0 n (%), the “Blood bilirubin increased” value [1, 3] was 2 n (%) and the “Diarrhea, treatment-related adverse event” value [1, 3] was 1 n (%). For the same molecule, the “Anemia, treatment-related adverse event” value ([1]; 600 mg BID, N = 3) was 2 (66.7) n (%), the “Aspartate aminotransferase increased” value ([1]; 600 mg BID, N = 3) was 1 (33.3) n (%) and the “Blood alkaline phosphatase increased” value ([1]; 600 mg BID, N = 3) was 0 n (%). For the same molecule, the “Blood bilirubin increased” value ([1]; 600 mg BID, N = 3) was 2 (66.7) n (%), the “Decreased appetite” value ([1]; 600 mg BID, N = 3) was 1 (33.3) n (%) and the “Diarrhea, treatment-related adverse event” value ([1]; 600 mg BID, N = 3) was 2 (66.7) n (%). For the same molecule, the “Fatigue, treatment-related adverse event” value ([1]; 600 mg BID, N = 3) was 3 n (%) and 3 (100.0) n (%), the “Headache, treatment-related adverse event” value ([1]; 600 mg BID, N = 3) was 1 (33.3) n (%) and the “Nausea, treatment-related adverse event” value ([1]; 600 mg BID, N = 3) was 1 (33.3) n (%). The “Blood bilirubin increased” value [1, 4] was 2 n (%), the “Diarrhea, treatment-related adverse event” value [1, 4] was 2 n (%) and the “Nausea, treatment-related adverse event” value [1, 4] was 1 n (%). For the same molecule, the “recommended Phase 2 dose (RP2D)” value ([1]; Japanese subjects) was 400 mg BID, the “Anemia, treatment-related adverse event” value ([1]; Total, N = 9) was 2 (22.2) n (%) and the “Aspartate aminotransferase increased” value ([1]; Total, N = 9) was 2 (22.2) n (%). For the same molecule, the “Blood alkaline phosphatase increased” value ([1]; Total, N = 9) was 2 (22.2) n (%), the “Blood bilirubin increased” value ([1]; Total, N = 9) was 7 (77.8) n (%) and the “Decreased appetite” value ([1]; Total, N = 9) was 4 (44.4) n (%). The “Diarrhea, treatment-related adverse event” value ([1]; Total, N = 9) was 3 (33.3) n (%), the “Fatigue, treatment-related adverse event” value ([1]; Total, N = 9) was 6 (66.7) n (%) and the “Headache, treatment-related adverse event” value ([1]; Total, N = 9) was 2 (22.2) n (%). The “Nausea, treatment-related adverse event” value ([1]; Total, N = 9) was 2 (22.2) n (%), the “Blood bilirubin increased” value [1, 5] was 7 n (%) and the “Decreased appetite” value [1, 5] was 4 n (%). For the same molecule, the “Diarrhea, treatment-related adverse event” value [1, 5] was 3 n (%), the “Fatigue, treatment-related adverse event” value [1, 5] was 6 n (%) and the “Nausea, treatment-related adverse event” value [1, 5] was 2 n (%). The “AEs leading to death, SAEs, AEs leading to early study withdrawal” value ([1]; all dose cohorts) was “no AEs leading to death or SAEs, and no AEs leading to early study withdrawal”, the “concurrent increases in ALT or AST above ULN in subjects with hyperbilirubinemia” value ([1]; all dose cohorts) was “no increase in ALT or AST values associated with the increases in bilirubin” and the proteinuria ([1]; all dose cohorts) was “no subject developed any grade of proteinuria”. The “concurrent increases in ALT or AST above ULN in subjects with hyperbilirubinemia” value ([1]; all dose cohorts, listed as defactinib) was “None of these subjects had concurrent increases in ALT or AST above ULN”, the tolerability ([1]; all dose levels investigated) was “well tolerated at all dose levels investigated; also recorded: acceptable safety profile” and the “ECG parameters and QTc interval” value ([1]; any dose cohort) was “No clinically meaningful changes in any ECG parameter were observed for any dose cohort and no subject had a QTc interval ≥500 ms or QTc increase from baseline >30 ms”. The “dose-limiting toxicities (DLTs)” value ([1]; any dose cohort) was “No dose-limiting toxicities were observed at any dose level”, the “dose-limiting toxicities (DLTs)” value ([1]; any dose cohort, listed as defactinib) was “No DLTs were reported in any dose cohort” and the “subjects requiring dose modification for increased bilirubin” value ([1]; of the 9 subjects) was 1 subjects. The “time to resolution of Grade 3 hyperbilirubinemia after onset” value ([1]; one patient, 200 mg cohort, following interruption of study drug) was 6 days, the “onset of hyperbilirubinemia after initiating treatment” value ([1]; typical onset, asymptomatic) was at most 2 weeks and the IC50 (recombinant human Pyk2) was 0.6 nM. For the same molecule, the IC50 (recombinant human FAK) was 0.6 nM, the “potential for CYP 2C-, 2D- or 3A-mediated drug interactions” value (CYP 2C, 2D, 3A) was “low potential” and the “selectivity for FAK and Pyk2 over other nontarget kinases” value (other nontarget kinases) was “more than 100 fold”. The UGT1A1 inhibition (UGT1A1) was “UGT1A1 inhibitors in vitro”.
